This assay concerns fungi of gray mold of cucumber. In words: Controlling effect on gray mold of cucumber, foliar spray on potted cucumber plants. Format: in vivo, Botrytis cinerea. The note with it: single compound, 5.0 ppm, 10° C. humid for 6 days after inoculation. As to the method: Plastic pots were filled with sandy loam and sown with cucumber (Sagamihanjiro), followed by growing in a greenhouse for 12 days. A wettable powder of the Compound (I-j) and a wettable powder of procymidone were separately diluted with water, and these dilutions were tank-mixed, then the tank-mixed dilution of the prescribed concentrations of the Compound (I-j) and procymidone was prepared. Said tank-mixed dilution was sprayed to foliage of said cucumber so as to adhere the dilution sufficiently to the surfaces of its leave. After air-drying, a PDA medium including hyphae of the fungi of gray mold of cucumber was placed on the leave surfaces of said cucumber. After inoculation, the plastic pots were placed under a humid environment of 10° C. for 6 days, and then the controlling effect was examined. […]
At the examination, the following evaluation indices was used. The attack rates were calculated with Scheme 1, and then on the basis of the attack rates, the controlling values were calculated with Scheme 2. […]
The controlling effect, which is expected when treatment is carried out by mixing the given two species of active ingredient compounds, is generally calculated according to the following Colby equation described at Scheme 3. […]

For the molecule `CC12CC1(C)C(=O)N(c1cc(Cl)cc(Cl)c1)C2=O` (stereo not shown) [(II), N-(3,5-dichlorophenyl)-1,2-dimethylcyclopropane-1,2-dicarboximide], the Actual controlling value is recorded as 0%.

Source of the values: patent publication US6521568B1, “Plant disease controlling compositions and plant disease controlling method” (Sumitomo Chemical Company, Limited, priority 1999, dated 2003).
